{"source": "ChEMBL document CHEMBL6096728", "about": "“Simultaneous Induction of Immunogenic Pyroptosis and PD-L1 Downregulation by One Single Photosensitizer for Synergistic Cancer Photoimmunotherapy” (J Med Chem, 2025)", "key": {"[1]": {"assay": "Phototoxicity against human MDA-MB-231 cells preincubated for 24 hrs followed by light irradiation of 20 mW.cm/2 at 400 to 700nm for 10 mins under hypoxia condition by CCK-8 method", "type": "functional, cell-based", "conditions": "MDA-MB-231, light or radiation study"}, "[2]": {"assay": "Toxicity in BALB/c mouse assessed as effect on tumor at 25 mg/kg, iv measured after 14 days under light irradiation of 300 mW.cm/2 at 400 to 700nm measured after 5 mins by H and E staining based analysis", "type": "organism-based", "conditions": "in vivo, 336 h, 0.7 µM, time 14 day"}, "4T1 [3]": {"tested_on": "4T1", "assay": "Antitumor immunity against mouse 4T1 cells implanted in BALB/c mouse model assessed as increase in IFN-gamma secretion in tumors at 25 mg/kg, iv measured after 14 days under light irradiation of 300 mW.cm/2 at 400 to 700nm measured after 5 mins by ELISA method", "type": "functional, organism-based", "conditions": "time 14.0 day"}, "MDA-MB-231 [4]": {"tested_on": "MDA-MB-231", "assay": "Downregulation of PD-L1 expression level in human MDA-MB-231 cells at 0.5 uM preincubated with chloroquine followed by compound addition and measured after 24 hrs under light irradiation of 20 mW.cm/2 at 400 to 700nm for 10 mins by Western blot analysis", "type": "functional, cell-based"}, "Homo sapiens": {"species_on_record": "Homo sapiens", "assay": "Binding affinity to PD-L1 (unknown origin) by streptavidin-biotin pull down assay"}, "MDA-MB-231 [5]": {"tested_on": "MDA-MB-231", "assay": "Induction of intracellular ROS generation in human MDA-MB-231 cells assessed as increase in fluorescence intensity at 0.1 uM preincubated for 2 hrs followed by compound washout further incubated with DCFH-DA probe for 30 mins under light irradiation of 20 mW.cm/2 at 400 to 700nm measured after 10 mins by flow cytometry analysis", "type": "functional, cell-based"}, "MDA-MB-231 [6]": {"tested_on": "MDA-MB-231", "assay": "Induction of pyroptosis in human MDA-MB-231 cells assessed as upregulation of caspase-3 expression level at 0.1 to 0.5 uM incubated with compound for 12 hrs under dark condition by Western blot analysis", "type": "functional, cell-based", "conditions": "dose 0.1-0.5 µM"}, "[7]": {"assay": "Toxicity in BALB/c mouse assessed as effect on liver at 25 mg/kg, iv measured after 14 days under light irradiation of 300 mW.cm/2 at 400 to 700nm measured after 5 mins", "type": "organism-based", "conditions": "in vivo, 336 h, 0.7 µM, time 14 day"}, "4T1 [8]": {"tested_on": "4T1", "assay": "Antitumor activity against mouse 4T1 cells implanted in BALB/c mouse model assessed as reduction in tumor volume at 25 mg/kg, iv measured after 14 days", "type": "functional, organism-based", "conditions": "time 14.0 day"}, "[9]": {"assay": "Drug accumulation in BALB/c mouse tumor implanted with mouse 4T1 cells assessed as increase in fluorescence intensity at 25 mg/kg, iv measured after 12 hrs by imaging based analysis", "type": "ADME, organism-based, Neoplasm", "conditions": "in vivo"}, "MDA-MB-231 [10]": {"tested_on": "MDA-MB-231", "assay": "Induction of pyroptosis in human MDA-MB-231 cells assessed as cell swelling at 0.5 uM preincubated with compound for 4 hrs followed by light irradiation of 20 mW.cm/2 at 400 to 700nm for 10 mins by confocal fluorescence microscopy analysis", "type": "functional, cell-based"}, "4T1 [11]": {"tested_on": "4T1", "assay": "Antitumor activity against mouse 4T1 cells implanted in BALB/c mouse model assessed as reduction in tumor growth at 25 mg/kg, iv measured after 14 days under light irradiation of 300 mW.cm/2 at 400 to 700nm measured after 5 mins", "type": "functional, organism-based", "conditions": "time 14.0 day"}, "MDA-MB-468": {"tested_on": "MDA-MB-468", "assay": "Downregulation of PD-L1 expression level in human MDA-MB-468 cells at 0.1 to 0.5 uM incubated for 24 hrs under light irradiation of 20 mW.cm/2 at 400 to 700nm for 10 mins by Western blot analysis", "type": "functional, cell-based", "conditions": "dose 0.1-0.5 µM"}, "MDA-MB-231 [12]": {"tested_on": "MDA-MB-231", "assay": "Photocytotoxicity in human MDA-MB-231 cells assessed as cell viablity incubated for 24 hrs under light irradiation of 50 mW.cm/2 at 400 to 700nm measured after 10 mins in hypoxia condition by CCK-8 method", "type": "functional, cell-based", "conditions": "MDA-MB-231, light or radiation study"}, "[13]": {"assay": "Phototoxicity against human MDA-MB-231 cells preincubated for 2 hrs followed by light irradiation of 20 mW.cm/2 at 400 at 700nm for 24 hrs by CCK-8 method", "type": "functional, cell-based", "conditions": "MDA-MB-231, light or radiation study"}, "4T1 [14]": {"tested_on": "4T1", "assay": "Induction of intracellular ROS generation in mouse 4T1 cells assessed as increase in fluorescence intensity at 0.1 uM preincubated for 2 hrs followed by compound washout further incubated with DCFH-DA probe for 30 mins under light irradiation of 20 mW.cm/2 at 400 to 700nm measured after 10 mins in presence of NaN3 by flow cytometry analysis", "type": "functional, cell-based"}, "[15]": {"assay": "Toxicity in BALB/c mouse assessed as effect on hemoglobin at 25 mg/kg, iv measured after 14 days", "type": "organism-based", "conditions": "in vivo, 336 h, time 14 day"}, "4T1 [16]": {"tested_on": "4T1", "assay": "Antitumor immunity against mouse 4T1 cells implanted in BALB/c mouse model assessed as upregulation of proportion of macrophage in lymph node at 25 mg/kg, iv measured after 14 days under light irradiation of 300 mW.cm/2 at 400 to 700nm measured after 5 mins by flow cytometry analysis", "type": "functional, organism-based", "conditions": "time 14.0 day"}, "4T1 [17]": {"tested_on": "4T1", "assay": "Antitumor immunity against mouse 4T1 cells implanted in BALB/c mouse model assessed as fold increase in CD8+ T cells in spleen at 25 mg/kg, iv measured after 14 days under light irradiation of 300 mW.cm/2 at 400 to 700nm measured after 5 mins […]", "type": "functional", "conditions": "time 14 day"}, "4T1 [18]": {"tested_on": "4T1", "assay": "Downregulation of PD-L1 expression level in mouse 4T1 cells at 0.1 to 0.5 uM incubated for 24 hrs under light irradiation of 20 mW.cm/2 at 400 to 700nm for 10 mins by Western blot analysis", "type": "functional, cell-based", "conditions": "dose 0.1-0.5 µM"}, "[19]": {"assay": "Toxicity in BALB/c mouse assessed as effect on tumor at 25 mg/kg, iv measured after 14 days by H and E staining based analysis", "type": "organism-based", "conditions": "in vivo, 336 h, time 14 day"}, "MDA-MB-231 [20]": {"tested_on": "MDA-MB-231", "assay": "Induction of pyroptosis in human MDA-MB-231 cells assessed as formation of bubble-like protrusion on cell surface at 0.25 uM preincubated with compound for 12 hrs followed by light irradiation of 20 mW.cm/2 at 400 to 700nm for 10 mins by confocal fluorescence microscopy analysis", "type": "functional, cell-based"}, "[21]": {"assay": "Toxicity in BALB/c mouse assessed as effect on heart at 25 mg/kg, iv measured after 14 days under light irradiation of 300 mW.cm/2 at 400 to 700nm measured after 5 mins by H and E staining based analysis", "type": "organism-based", "conditions": "in vivo, 336 h, 0.7 µM, time 14 day"}, "[22]": {"assay": "Drug accumulation in BALB/c mouse tumor implanted with mouse 4T1 cells assessed as increase in fluorescence intensity at 25 mg/kg, iv measured after 3 hrs by imaging based analysis", "type": "ADME, organism-based, Neoplasm", "conditions": "in vivo"}, "[23]": {"assay": "Toxicity in BALB/c mouse assessed as change in body weight at 25 mg/kg, iv measured after 14 days under light irradiation of 300 mW.cm/2 at 400 to 700nm measured after 5 mins", "type": "organism-based", "conditions": "in vivo, 336 h, time 14 day"}, "MDA-MB-231 [24]": {"tested_on": "MDA-MB-231", "assay": "Downregulation of PD-L1 expression level in human MDA-MB-231 cells at 0.1 to 0.5 uM incubated for 24 hrs under light irradiation of 20 mW.cm/2 at 400 to 700nm for 10 mins by Western blot analysis", "type": "functional, cell-based", "conditions": "dose 0.1-0.5 µM"}, "4T1 [25]": {"tested_on": "4T1", "assay": "Antitumor immunity against mouse 4T1 cells implanted in BALB/c mouse model assessed as upregulation of proportion of dendritic cells in lymph node at 25 mg/kg, iv measured after 14 days under light irradiation of 300 mW.cm/2 at 400 to 700nm measured after 5 mins by flow cytometry analysis", "type": "functional, organism-based", "conditions": "time 14.0 day"}}, "note": "The source made the active and inactive calls. The calls are words filed in the database; no cut-off is given here.", "data": [{"smiles": "O=c1cc2sc3cc(N4CCNCC4)ccc3nc-2c2ccccc12", "values": [{"measurement": "IC50", "setting": "[1]", "result": 303, "unit": "nM"}, {"measurement": "Activity", "setting": "[2]", "result": "Toxic"}, {"measurement": "Activity", "setting": "4T1 [3]", "result": "Active"}, {"measurement": "Activity", "setting": "MDA-MB-231 [4]", "result": "inactive"}, {"measurement": "Activity", "setting": "Homo sapiens", "result": "Not active; Compound Rarely Binds To Pd-L1"}, {"measurement": "Activity", "setting": "MDA-MB-231 [5]", "result": "Active"}, {"measurement": "Activity", "setting": "MDA-MB-231 [6]", "result": "Active; Compound Showed Negligible Changes"}, {"measurement": "Activity", "setting": "[7]", "result": "Non-toxic"}, {"measurement": "Activity", "setting": "4T1 [8]", "result": "Active"}, {"measurement": "Drug uptake", "setting": "[9]", "result": "Active"}, {"measurement": "Activity", "setting": "MDA-MB-231 [10]", "result": "Active"}, {"measurement": "Activity", "setting": "4T1 [11]", "result": "Active"}, {"measurement": "Activity", "setting": "MDA-MB-468", "result": "Active"}, {"measurement": "IC50", "setting": "MDA-MB-231 [12]", "result": 983, "unit": "nM"}, {"measurement": "IC50", "setting": "[13]", "result": 164, "unit": "nM"}, {"measurement": "Activity", "setting": "4T1 [14]", "result": "inactive"}, {"measurement": "Activity", "setting": "[15]", "result": "Non-toxic"}, {"measurement": "Activity", "setting": "4T1 [16]", "result": "Active"}, {"measurement": "fold change (FC)", "setting": "4T1 [17]", "result": 6.3}, {"measurement": "Activity", "setting": "4T1 [18]", "result": "Active"}, {"measurement": "Activity", "setting": "[19]", "result": "Toxic"}, {"measurement": "Activity", "setting": "MDA-MB-231 [20]", "result": "Active"}, {"measurement": "Activity", "setting": "[21]", "result": "Non-toxic"}, {"measurement": "Drug uptake", "setting": "[22]", "result": "Active"}, {"measurement": "Activity", "setting": "[23]", "result": "Non-toxic"}, {"measurement": "Activity", "setting": "MDA-MB-231 [24]", "result": "Active"}, {"measurement": "Activity", "setting": "4T1 [25]", "result": "Active"}]}]}
